Assay [1] has as its target Corticotropin-releasing factor receptor 2 (Mus musculus, UniProt Q60748). Briefly: In vitro effective concentration for mouse corticotropin releasing factor 2 receptor.
Assay [2] addresses T1, Corticotropin-releasing factor receptor 1 (Mus musculus, UniProt P35347).
T1 sequence (P35347 whole entry): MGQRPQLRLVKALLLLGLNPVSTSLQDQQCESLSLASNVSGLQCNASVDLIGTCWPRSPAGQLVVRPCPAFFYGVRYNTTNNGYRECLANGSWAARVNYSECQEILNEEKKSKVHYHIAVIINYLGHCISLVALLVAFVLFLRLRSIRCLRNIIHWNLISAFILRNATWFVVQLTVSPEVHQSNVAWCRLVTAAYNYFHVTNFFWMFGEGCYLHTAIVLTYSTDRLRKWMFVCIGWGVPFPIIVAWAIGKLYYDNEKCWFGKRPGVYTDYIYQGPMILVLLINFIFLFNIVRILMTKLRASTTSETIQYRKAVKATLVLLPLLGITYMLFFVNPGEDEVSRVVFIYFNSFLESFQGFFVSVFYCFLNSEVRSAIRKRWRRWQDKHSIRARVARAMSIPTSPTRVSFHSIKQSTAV
Briefly: In vitro effective concentration for mouse corticotropin releasing factor 1 receptor.

Assay [3] concerns the target T2, Corticotropin-releasing factor receptor 1 (Mus musculus) (UniProt P35347).
T2 sequence (whole entry): T1 sequence (P35347 whole entry)
Briefly: In vitro agonistic activity against mouse corticotropin releasing factor 1 receptor. It counts as functional.

Assay [4] is filed under the species Mus musculus. Briefly: Selectivity ratio of EC50s for mouse corticotropin releasing factor receptors 1 and 2.
The target in assay [5] is Corticotropin-releasing factor receptor 2 (Mus musculus) (UniProt Q60748). Briefly: In vitro agonistic activity against mouse corticotropin releasing factor 2 receptor. It counts as functional.
Sequence of Corticotropin-releasing factor receptor 2 (Mus musculus) (Q60748 whole entry): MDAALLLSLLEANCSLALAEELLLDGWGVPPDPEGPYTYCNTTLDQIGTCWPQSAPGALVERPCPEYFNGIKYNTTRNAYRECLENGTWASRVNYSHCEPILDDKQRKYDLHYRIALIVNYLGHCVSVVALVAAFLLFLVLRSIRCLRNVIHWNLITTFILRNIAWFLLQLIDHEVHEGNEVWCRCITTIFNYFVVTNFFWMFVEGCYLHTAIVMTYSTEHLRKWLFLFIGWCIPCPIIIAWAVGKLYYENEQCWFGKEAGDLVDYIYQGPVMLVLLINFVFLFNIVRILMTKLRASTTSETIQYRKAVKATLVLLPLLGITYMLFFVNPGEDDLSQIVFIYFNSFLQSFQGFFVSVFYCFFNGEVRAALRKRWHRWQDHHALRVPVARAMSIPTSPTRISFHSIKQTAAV

Sequence of Corticotropin-releasing factor receptor 2 (Q60748 whole entry): as above

Regarding `CC[C@H](C)[C@H](NC(=O)[C@@H](NC(=O)[C@H](CC(=O)O)NC(=O)[C@H](CC(C)C)NC(=O)[C@H](CC(C)C)NC(=O)[C@H](CC(C)C)NC(=O)[C@H](CCCN=C(N)N)NC(=O)[C@H](CC(N)=O)NC(=O)[C@H](CC(N)=O)NC(=O)[C@H](C)NC(=O)[C@H](C)NC(=O)[C@H](CCC(N)=O)NC(=O)[C@H](CCC(N)=O)NC(=O)[C@H](CCCCN)NC(=O)[C@H](CCC(=O)O)NC(=O)[C@H](CCCCN)NC(=O)[C@H](CCC(=O)O)NC(=O)[C@H](CCC(N)=O)NC(=O)[C@H](CCCCN)NC(=O)[C@H](CCC(=O)O)NC(=O)[C@@H](NC(=O)[C@H](CCC(=O)O)NC(=O)[C@@H](NC(=O)[C@H](CCSC)NC(=O)[C@H](CCCCN)NC(=O)[C@H](CCCN=C(N)N)NC(=O)[C@H](CC(C)C)NC(=O)[C@H](CC(C)C)NC(=O)[C@H](Cc1c[nH]cn1)NC(=O)[C@H](Cc1ccc(O)cc1)NC(=O)[C@@H]1CCCN1C(=O)[C@H](CC(C)C)NC(=O)[C@H](CC(=O)O)NC(=O)[C@@H](NC(=O)[C@H](CO)NC(=O)[C@@H](NC(=O)[C@@H]1CCCN1C(=O)[C@@H]1CCCN1C(=O)CNC(=O)[C@@H]1CCC(=O)N1)[C@@H](C)CC)[C@@H](C)CC)[C@@H](C)CC)[C@@H](C)CC)[C@@H](C)O)C(=O)O`, the EC50 in assay [1] came to 5.6 nM; in assay [2], 64.9 nM. Moreover, the values for the Emax in assay [3] and in assay [5] were 81% and 88%, respectively. Besides, the Selectivity in assay [4] worked out at 13.
For the molecule `CC[C@H](C)[C@H](NC(=O)[C@@H](NC(=O)[C@H](CC(=O)O)NC(=O)[C@H](CC(C)C)NC(=O)[C@H](CC(C)C)NC(=O)[C@H](CC(C)C)NC(=O)[C@H](CCCN=C(N)N)NC(=O)[C@H](CC(N)=O)NC(=O)[C@H](CC(N)=O)NC(=O)[C@H](C)NC(=O)[C@H](C)NC(=O)[C@H](CCC(N)=O)NC(=O)[C@H](CCC(N)=O)NC(=O)[C@H](CCCCN)NC(=O)[C@H](CCC(=O)O)NC(=O)[C@H](CCCCN)NC(=O)[C@H](CCC(=O)O)NC(=O)[C@H](CCC(N)=O)NC(=O)[C@H](CCCCN)NC(=O)[C@H](CCC(=O)O)NC(=O)[C@@H](NC(=O)[C@H](CCC(=O)O)NC(=O)[C@@H](NC(=O)[C@H](CCSC)NC(=O)[C@H](CCCCN)NC(=O)[C@H](CCCN=C(N)N)NC(=O)[C@H](CC(C)C)NC(=O)[C@H](CC(C)C)NC(=O)[C@H](Cc1c[nH]c2ccccc12)NC(=O)[C@H](Cc1ccccc1)NC(=O)[C@@H]1CCCN1C(=O)[C@H](CC(C)C)NC(=O)[C@H](CC(=O)O)NC(=O)[C@@H](NC(=O)[C@H](CO)NC(=O)[C@@H](NC(=O)[C@@H]1CCCN1C(=O)[C@@H]1CCCN1C(=O)CNC(=O)[C@@H]1CCC(=O)N1)[C@@H](C)CC)[C@@H](C)CC)[C@@H](C)CC)[C@@H](C)CC)[C@@H](C)O)C(=O)O`, the half-maximal effective concentration (EC50) in assay [1] came to 4.7 nM; in assay [2] it was 94.6 nM. For the same molecule, the Emax was determined as 100% in assay [3] and 95% in assay [5]. The Selectivity in assay [4] stood at 20.
The corresponding values for `CC[C@H](C)[C@H](NC(=O)[C@@H](NC(=O)[C@H](CC(=O)O)NC(=O)[C@H](CC(C)C)NC(=O)[C@H](CC(C)C)NC(=O)[C@H](CC(C)C)NC(=O)[C@H](CCCN=C(N)N)NC(=O)[C@H](CC(N)=O)NC(=O)[C@H](CC(N)=O)NC(=O)[C@H](C)NC(=O)[C@H](C)NC(=O)[C@H](CCC(N)=O)NC(=O)[C@H](CCC(N)=O)NC(=O)[C@H](CCCCN)NC(=O)[C@H](CCC(=O)O)NC(=O)[C@H](CCCCN)NC(=O)[C@H](CCC(=O)O)NC(=O)[C@H](CCC(N)=O)NC(=O)[C@H](CCCCN)NC(=O)[C@H](CCC(=O)O)NC(=O)[C@@H](NC(=O)[C@H](CCC(=O)O)NC(=O)[C@@H](NC(=O)[C@H](CCSC)NC(=O)[C@H](CCCCN)NC(=O)[C@H](CCCN=C(N)N)NC(=O)[C@H](CC(C)C)NC(=O)[C@H](CC(C)C)NC(=O)[C@H](CCC(N)=O)NC(=O)[C@H](Cc1c[nH]cn1)NC(=O)[C@@H]1CCCN1C(=O)[C@H](CC(C)C)NC(=O)[C@H](CC(=O)O)NC(=O)[C@@H](NC(=O)[C@H](CO)NC(=O)[C@@H](NC(=O)[C@@H]1CCCN1C(=O)[C@@H]1CCCN1C(=O)CNC(=O)[C@@H]1CCC(=O)N1)[C@@H](C)CC)[C@@H](C)CC)[C@@H](C)CC)[C@@H](C)CC)[C@@H](C)O)C(=O)O` are 21.3 nM, 445 nM, 100%, 100% and 21.
Regarding `CC[C@H](C)[C@H](NC(=O)[C@@H](NC(=O)[C@H](CC(=O)O)NC(=O)[C@H](CC(C)C)NC(=O)[C@H](CC(C)C)NC(=O)[C@H](CC(C)C)NC(=O)[C@H](CCCN=C(N)N)NC(=O)[C@H](CC(N)=O)NC(=O)[C@H](CC(N)=O)NC(=O)[C@H](C)NC(=O)[C@H](C)NC(=O)[C@H](CCC(N)=O)NC(=O)[C@H](CCC(N)=O)NC(=O)[C@H](CCCCN)NC(=O)[C@H](CCC(=O)O)NC(=O)[C@H](CCCCN)NC(=O)[C@H](CCC(=O)O)NC(=O)[C@H](CCC(N)=O)NC(=O)[C@H](CCCCN)NC(=O)[C@H](CCC(=O)O)NC(=O)[C@@H](NC(=O)[C@H](CCC(=O)O)NC(=O)[C@@H](NC(=O)[C@H](CCSC)NC(=O)[C@H](CCCCN)NC(=O)[C@H](CCCN=C(N)N)NC(=O)[C@H](CC(C)C)NC(=O)[C@H](CC(C)C)NC(=O)[C@@H](NC(=O)[C@H](Cc1ccc(O)cc1)NC(=O)[C@@H]1CCCN1C(=O)[C@H](CC(C)C)NC(=O)[C@H](CC(=O)O)NC(=O)[C@@H](NC(=O)[C@H](CO)NC(=O)[C@@H](NC(=O)[C@@H]1CCCN1C(=O)[C@@H]1CCCN1C(=O)CNC(=O)[C@@H]1CCC(=O)N1)[C@@H](C)CC)[C@@H](C)CC)C(C)C)[C@@H](C)CC)[C@@H](C)CC)[C@@H](C)O)C(=O)O`, the EC50 in assay [1] is 5 nM; in assay [2], 100 nM. Moreover, the results for the Emax in assay [3] and in assay [5] were 80% and 100%, respectively. For the same molecule, the Selectivity in assay [4] stood at 20.
With `CC[C@H](C)[C@H](NC(=O)[C@@H](NC(=O)[C@H](CC(=O)O)NC(=O)[C@H](CC(C)C)NC(=O)[C@H](CC(C)C)NC(=O)[C@H](CC(C)C)NC(=O)[C@H](CCCN=C(N)N)NC(=O)[C@H](CC(N)=O)NC(=O)[C@H](CC(N)=O)NC(=O)[C@H](C)NC(=O)[C@H](C)NC(=O)[C@H](CCC(N)=O)NC(=O)[C@H](CCC(N)=O)NC(=O)[C@H](CCCCN)NC(=O)[C@H](CCC(=O)O)NC(=O)[C@H](CCCCN)NC(=O)[C@H](CCC(=O)O)NC(=O)[C@H](CCC(N)=O)NC(=O)[C@H](CCCCN)NC(=O)[C@H](CCC(=O)O)NC(=O)[C@@H](NC(=O)[C@H](CCC(=O)O)NC(=O)[C@@H](NC(=O)[C@H](CCSC)NC(=O)[C@H](CCCCN)NC(=O)[C@H](CCCN=C(N)N)NC(=O)[C@H](CC(C)C)NC(=O)[C@H](CC(C)C)NC(=O)[C@@H](NC(=O)[C@H](CC(C)C)NC(=O)[C@@H]1CCCN1C(=O)[C@H](CC(C)C)NC(=O)[C@H](CC(=O)O)NC(=O)[C@@H](NC(=O)[C@H](CO)NC(=O)[C@@H](NC(=O)[C@@H]1CCCN1C(=O)[C@@H]1CCCN1C(=O)CNC(=O)[C@@H]1CCC(=O)N1)[C@@H](C)CC)[C@@H](C)CC)[C@@H](C)CC)[C@@H](C)CC)[C@@H](C)CC)[C@@H](C)O)C(=O)O`, the EC50 came out at 5 nM in assay [1] and 106 nM in assay [2]. Besides, the maximal effect (Emax) in assay [3] was 94%; in assay [5], 96%. For the same molecule, the Selectivity in assay [4] was 21.

The record behind these values is ChEMBL document CHEMBL1139487, “Discovery of corticotropin releasing factor 2 receptor selective sauvagine analogues for treatment of skeletal muscle atrophy” (J Med Chem, 2005).
